Like-named read-outs stand apart in the source and are kept apart here.
Key:
FGFR2 = molecular target: T1, FGFR2 (Homo sapiens, UniProt P21802); experiment: FGFR wild type enzyme assay (HTRF KinEASE-TK); format: biochemical; conditions: ATP 2 uM
T1 construct: biochemical assays using purified intracellular domains of the respective isoforms; purchased Carna Bioscience 08-134
Protocol: (§1) Activity against FGFR wild type and mutant enzymes were determined in biochemical assays using purified intracellular domains of the respective isoforms using HTRF KinEASE-TK assay technology from CisBio, now PerkinElmer. (Catalogue number 62TK0PEC). Briefly test compounds were tested in 11 point 1:3 serial dilutions, typical final concentration range from 10,000 nM to 0.17 nM. Test compounds were dissolved in DMSO and added to assay plates using acoustic transfer. Enzyme was pre-incubated with test compound for 30 minutes and the assay was initiated by addition of ATP and TK-peptide substrate. After 60 minutes at room temperature the reaction was quenched with detection reagent and incubated for an additional 60 minutes at room temperature. The plates were read using a multimode reader and the emission ratio of 665 nm to 615 nm was determined. This ratio was converted to percent of control (POC). [1-(high control-sample signal)/(high control-low control)]*100. Wells without compound were used to determine high control values and wells without enzyme were used to determine low control values. The POC values were fit using a four-parameter logistic model and the value where the fit curve was equal to 50 POC was reported as the IC50 using the Signals Vitro Vivo software package (PerkinElmer). Final assay conditions were: 50 mM HEPES pH7.5, 10 mM MgCl2, 1 mM EDTA, 0.01% Brij-35, 2 mM MnCl2, 1 mM DTT, and 0.5 uM TK-peptide. The enzyme source, catalogue number, final enzyme concentration, and final ATP concentration can be found in the tables 1-2 below.

FGFR2-WT = FGFR2-WT (Homo sapiens, UniProt P21802); experiment: Phosphorylated FGFR2-WT (pFGFR2-WT) cell assay, KATOIII cells; format: cell-based; conditions: 1 hour incubation, phospho FGFR2 HTRF
Protocol: KATOIII cells were grown in the appropriate growth medium, IMDM supplemented with 20% fetal bovine serum. Cells were seeded into a 384-well at 1×10^5 cells/25 μL/well. Cells were treated with compound using three-fold serial dilutions at final concentrations ranging from 10 μM to 0.5 nM. Compound was incubated on cells for 1 hour at 37° C., 5% CO2.
Following the 1-hour incubation with compounds, cell lysates were prepared and phospho FGFR2 was measured using the HTRF Phospho-FGFR2 (TYR653/654) Detection Kits (CisBio, cat #64FGFR2Y6PEG). 8 μL of cell lysis buffer (4×) supplied with 1× Phospho and Total protein blocking reagent (CisBio, cat #64FGFR2Y6PEG, CisBio, cat #64KB1AAC) was then added to the wells. Cells were incubated with lysis buffer for 40 minutes at 4° C. under shaking conditions. Plates were centrifuged at 1500 rpm for 3 min and then 16 μL of cell lysate was transferred from the cell-culture plate to a small volume detection plate with the added premixed antibody solutions (4 μL) (CisBio, cat #64FGFR2Y6PEG). Plates were centrifuged at 1000 rpm for 1 min then incubated at 25° C. for 120 min, then overnight at 4° C. Plates were read on the En Vision multimode plate reader via HTRF dual wavelength detection. One hundred percent of control (POC) was determined using DMSO treated samples, and 0 POC was determined using the top concentration of a control compound. A 4-parameter logistic curve was fit to the POC values as a function of compound concentration to determine the IC50 value.

FGFR2 N549H = molecular target: T2, FGFR2 N549H (Homo sapiens, UniProt P21802, N549H); experiment: FGFR mutant enzyme assay (HTRF KinEASE-TK); format: biochemical; conditions: ATP 0.9 uM
T2 construct: biochemical assays using purified intracellular domains of the respective isoforms; purchased Carna Bioscience 08-532
Protocol: as §1

FGFR2 V564F = molecular target: T3, FGFR2 V564F (Homo sapiens, UniProt P21802, V564F); experiment: FGFR mutant enzyme assay (HTRF KinEASE-TK); format: biochemical; conditions: ATP 1.5 uM
T3 construct: biochemical assays using purified intracellular domains of the respective isoforms; purchased SignalChem Biotech F05-12FG
Protocol: as §1

FGFR2 V564I = molecular target: T4, FGFR2 V564I (Homo sapiens, UniProt P21802, V564I); experiment: FGFR mutant enzyme assay (HTRF KinEASE-TK); format: biochemical; conditions: ATP 0.4 uM
T4 construct: biochemical assays using purified intracellular domains of the respective isoforms; purchased Carna Bioscience 08-546
Protocol: as §1

[1] = compound table after the examples, read-out: Enz FGFR2

T2 sequence (P21802 399-821 N549H limits assumed): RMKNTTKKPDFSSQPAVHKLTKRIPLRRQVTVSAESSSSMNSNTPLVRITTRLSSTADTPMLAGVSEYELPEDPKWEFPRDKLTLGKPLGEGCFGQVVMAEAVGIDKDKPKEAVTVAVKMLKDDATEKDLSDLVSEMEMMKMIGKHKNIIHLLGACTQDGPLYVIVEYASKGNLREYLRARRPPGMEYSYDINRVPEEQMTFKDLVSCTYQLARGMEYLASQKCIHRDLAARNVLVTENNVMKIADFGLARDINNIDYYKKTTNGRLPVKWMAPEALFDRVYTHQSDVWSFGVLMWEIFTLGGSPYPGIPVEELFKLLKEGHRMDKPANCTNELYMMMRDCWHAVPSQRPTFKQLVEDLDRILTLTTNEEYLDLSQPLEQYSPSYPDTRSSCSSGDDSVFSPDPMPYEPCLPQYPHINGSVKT
FGFR2-WT, sequence (P21802 430-767 limits assumed): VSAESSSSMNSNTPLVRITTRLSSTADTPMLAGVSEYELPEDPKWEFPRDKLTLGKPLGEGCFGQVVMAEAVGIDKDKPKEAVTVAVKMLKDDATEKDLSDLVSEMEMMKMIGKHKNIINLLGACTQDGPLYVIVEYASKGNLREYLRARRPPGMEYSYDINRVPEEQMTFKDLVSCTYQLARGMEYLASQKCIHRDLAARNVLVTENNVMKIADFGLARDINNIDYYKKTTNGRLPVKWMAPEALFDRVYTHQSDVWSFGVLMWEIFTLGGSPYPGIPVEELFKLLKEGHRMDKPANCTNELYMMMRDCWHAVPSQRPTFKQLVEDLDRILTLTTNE
T3 sequence (P21802 399-821 V564F limits assumed): as the sequence (P21802 399-821 N549H limits assumed) above, with H151N, V166F counted along it
T1 sequence (P21802 399-821 limits assumed): as the sequence (P21802 399-821 N549H limits assumed) above, with H151N counted along it
T4 sequence (P21802 399-821 V564I limits assumed): as the sequence (P21802 399-821 N549H limits assumed) above, with H151N, V166I counted along it

Row | SMILES | IC50 (FGFR2; Table 3, read-out: FGFR2 Enz) | IC50 (FGFR2; [1]) | IC50 (FGFR2-WT) | IC50 (FGFR2 N549H) | IC50 (FGFR2 V564F) | IC50 (FGFR2 V564I)
1 | C[C@@H](Oc1cc(-c2nnn(C)c2N)cn2ncc(C#N)c12)c1ccc(F)cn1 [Compound 34, (R)-6-(5-amino-1-methyl-1H-1,2,3-triazol-4-yl)-4-(1-(5-fluoropyridin-2-yl)ethoxy)pyrazolo[1,5-a]pyridine-3-carbonitrile] | 2.6 nM | 2.6 nM | 17 nM | 3 nM | 10 nM | 12 nM
2 | C[C@@H](Oc1cc(-c2cnn(C)c2N)cn2ncc(C#N)c12)c1ccccn1 [Compound 35, (R)-6-(5-amino-1-methyl-1H-pyrazol-4-yl)-4-(1-(pyridin-2-yl)ethoxy)pyrazolo[1,5-a]pyridine-3-carbonitrile] | 1 nM | 1 nM | 5 nM | 1 nM | 2 nM | 2.7 nM
3 | CC(=O)N[C@H]1CC[C@H](n2ncc(-c3cc(O[C@H](C)c4ccc(F)cn4)c4c(C#N)cnn4c3)c2C)CC1 [Compound 36, N-((1R,4r)-4-(4-(3-cyano-4-((R)-1-(5-fluoropyridin-2-yl)ethoxy)pyrazolo[1,5-a]pyridin-6-yl)-5-methyl-1H-pyrazol-1-yl)cyclohexyl)acetamide] | 0.4 nM | 0.4 nM | 4 nM | 0.5 nM | 1.5 nM | 2 nM
4 | Cc1c(-c2cc(O[C@H](C)c3ccc(F)cn3)c3c(C#N)cnn3c2)cnn1[C@H]1CCCN(C[C@H](O)CO)C1 [Compound 37, 6-(1-((S)-1-((S)-2,3-dihydroxypropyl)piperidin-3-yl)-5-methyl-1H-pyrazol-4-yl)-4-((R)-1-(5-fluoropyridin-2-yl)ethoxy)pyrazolo[1,5-a]pyridine-3-carbonitrile] | 0.5 nM | 0.5 nM | 5.6 nM | 0.3 nM | 1 nM | 1.6 nM
5 | Cc1c(-c2cc(O[C@H](C)c3ccc(F)cn3)c3c(C#N)cnn3c2)cnn1[C@H]1CCCN(C(CO)CO)C1 [Compound 38, 6-(1-((S)-1-(1,3-dihydroxypropan-2-yl)piperidin-3-yl)-5-methyl-1H-pyrazol-4-yl)-4-((R)-1-(5-fluoropyridin-2-yl)ethoxy)pyrazolo[1,5-a]pyridine-3-carbonitrile] | 0.4 nM | 0.4 nM | 6 nM | 0.3 nM | 1 nM | 1.3 nM
6 | Cc1c(-c2cc(O[C@H](C)c3ccc(F)cn3)c3c(C#N)cnn3c2)cnn1C1CCN(C[C@H](O)CO)CC1 [Compound 39, 6-(1-(1-((S)-2,3-dihydroxypropyl)piperidin-4-yl)-5-methyl-1H-pyrazol-4-yl)-4-((R)-1-(5-fluoropyridin-2-yl)ethoxy)pyrazolo[1,5-a]pyridine-3-carbonitrile] | 0.5 nM | 0.5 nM | 5.5 nM | 0.4 nM | 1 nM | 1 nM
7 | Cc1c(-c2cc(O[C@H](C)c3ccc(F)cn3)c3c(C#N)cnn3c2)cnn1[C@H]1CCCN(C(=O)C2(O)CCC2)C1 [Compound 40, 4-((R)-1-(5-fluoropyridin-2-yl)ethoxy)-6-(1-((S)-1-(1-hydroxycyclobutane-1-carbonyl)piperidin-3-yl)-5-methyl-1H-pyrazol-4-yl)pyrazolo[1,5-a]pyridine-3-carbonitrile] | 1 nM | 1 nM | 6.7 nM | 0.6 nM | 2 nM | 3 nM
8 | Cc1c(-c2cc(O[C@H](C)c3ccc(F)cn3)c3c(C#N)cnn3c2)cnn1C1CCN(C(=O)[C@H](C)O)CC1 [Compound 41, 4-((R)-1-(5-fluoropyridin-2-yl)ethoxy)-6-(1-(1-((S)-2-hydroxypropanoyl)piperidin-4-yl)-5-methyl-1H-pyrazol-4-yl)pyrazolo[1,5-a]pyridine-3-carbonitrile] | 0.5 nM | 0.5 nM | 4 nM | 0.7 nM | 2 nM | 2 nM
9 | Cc1c(-c2cc(O[C@H](C)c3ccc(F)cn3)c3c(C#N)cnn3c2)cnn1C1CCN(C(=O)CO)CC1 [Compound 42, (R)-4-(1-(5-fluoropyridin-2-yl)ethoxy)-6-(1-(1-(2-hydroxyacetyl)piperidin-4-yl)-5-methyl-1H-pyrazol-4-yl)pyrazolo[1,5-a]pyridine-3-carbonitrile] | 0.6 nM | 0.6 nM | 4 nM | 0.65 nM | 1.7 nM | 2 nM
10 | Cc1c(-c2cc(O[C@H](C)c3ccc(F)cn3)c3c(C#N)cnn3c2)cnn1C1CCN(C(=O)C2(N)CCC2)CC1 [Compound 43, (R)-6-(1-(1-(1-aminocyclobutane-1-carbonyl)piperidin-4-yl)-5-methyl-1H-pyrazol-4-yl)-4-(1-(5-fluoropyridin-2-yl)ethoxy)pyrazolo[1,5-a]pyridine-3-carbonitrile] | 1 nM | 1 nM | 9 nM | 1 nM | 3 nM | 3 nM
11 | Cc1c(-c2cc(O[C@H](C)c3ccc(F)cn3)c3c(C#N)cnn3c2)cnn1C1CCN(C(=O)[C@@H](N)C(C)C)CC1 [Compound 44, 6-(1-(1-(L-valyl)piperidin-4-yl)-5-methyl-1H-pyrazol-4-yl)-4-((R)-1-(5-fluoropyridin-2-yl)ethoxy)pyrazolo[1,5-a]pyridine-3-carbonitrile] | 0.5 nM | 0.5 nM | 8 nM | 0.4 nM | 1 nM | 1.5 nM
12 | Cc1c(-c2cc(O[C@@H](C)c3ccc(F)cn3)c3c(C#N)cnn3c2)cnn1[C@H]1CC[C@H](O)CC1 [Compound 45, 4-((S)-1-(5-fluoropyridin-2-yl)ethoxy)-6-(1-((1r,4S)-4-hydroxycyclohexyl)-5-methyl-1H-pyrazol-4-yl)pyrazolo[1,5-a]pyridine-3-carbonitrile] | 6.5 nM | 6.5 nM | 60 nM | 7 nM | 13 nM | 23 nM
13 | Cc1c(-c2cc(O[C@H](C)c3ccc(F)cn3)c3c(C#N)cnn3c2)cnn1[C@H]1CC[C@@H](O)CC1 [Compound 46, 4-((R)-1-(5-fluoropyridin-2-yl)ethoxy)-6-(1-((1s,4S)-4-hydroxycyclohexyl)-5-methyl-1H-pyrazol-4-yl)pyrazolo[1,5-a]pyridine-3-carbonitrile] | 0.3 nM | 0.3 nM | 3 nM | 0.3 nM | 1 nM | 1 nM
14 | C[C@@H](Oc1cc(-c2cnn(C3CCN(C#N)CC3)c2N)cn2ncc(C#N)c12)c1ccc(F)cn1 [Compound 47, (R)-6-(5-amino-1-(1-cyanopiperidin-4-yl)-1H-pyrazol-4-yl)-4-(1-(5-fluoropyridin-2-yl)ethoxy)pyrazolo[1,5-a]pyridine-3-carbonitrile] | 0.3 nM | 0.3 nM | 4 nM | 0.4 nM | 1 nM | 1 nM
15 | Cc1c(-c2cc(O[C@H](C)c3ccc(F)cn3)c3c(C#N)cnn3c2)cnn1[C@H]1CCCN(C(=O)[C@@H](C)O)C1 [Compound 48, 4-((R)-1-(5-fluoropyridin-2-yl)ethoxy)-6-(1-((S)-1-((R)-2-hydroxypropanoyl)piperidin-3-yl)-5-methyl-1H-pyrazol-4-yl)pyrazolo[1,5-a]pyridine-3-carbonitrile] | 0.4 nM | 0.4 nM | 3 nM | 0.4 nM | 1 nM | 1 nM
